Numbered stars: 1 amine (or outer) side, 2 acyl side, 3 side chain; on linkers, the order of the positions; unused ones are H or OH. Bridge positions count the residues as written; N and C are the ends. Peptide text beside a SMILES is read from it. I, II: the chains in the order shown. Rhodamine110 = O=C1OC2(c3ccc(N[*:1])cc3Oc3cc(N[*:2])ccc32)c2ccccc21
Columns and labels:
Format in all cases: cell-based, human
granulocytes [1] = assay: aberrant enzyme activities in febrile children, granulocytes (Table 7)
granulocytes [2] = assay: enzyme activity with fluorogenic substrate, normal granulocytes (Table 3A)
monocytes [3] = assay: aberrant enzyme activities in febrile children, monocytes (Table 7)
lymphocytes [4] = assay: enzyme activity with fluorogenic substrate, normal lymphocytes (Table 3A)
monocytes [5] = assay: enzyme activity with fluorogenic substrate, normal monocytes (Table 3A)
lymphocytes [6] = assay: aberrant enzyme activities in febrile children, lymphocytes (Table 7)

Row | Compound | aberrant enzyme activity, GRANS (granulocytes [1]; P88 Enteritis) | aberrant enzyme activity, GRANS (granulocytes [1]; P89 Viral Stomatitis) | aberrant enzyme activity, GRANS (granulocytes [1]; P92 Adenitis) | aberrant enzyme activity, GRANS (granulocytes [1]; P97 Pyelonephritis) | aberrant enzyme activity, GRANS (granulocytes [1]; P103 Viral Syndrome) | NORMAL LEUKOCYTE ENZYME ACTIVITY GRANS Mean (granulocytes [2]) | aberrant enzyme activity, MONOS (monocytes [3]; P88 Enteritis) | aberrant enzyme activity, MONOS (monocytes [3]; P89 Viral Stomatitis) | aberrant enzyme activity, MONOS (monocytes [3]; P92 Adenitis) | aberrant enzyme activity, MONOS (monocytes [3]; P97 Pyelonephritis) | aberrant enzyme activity, MONOS (monocytes [3]; P103 Viral Syndrome) | NORMAL LEUKOCYTE ENZYME ACTIVITY MONOS Mean (monocytes [5]) | aberrant enzyme activity, LYMPHS (lymphocytes [6]; P88 Enteritis) | aberrant enzyme activity, LYMPHS (lymphocytes [6]; P89 Viral Stomatitis) | aberrant enzyme activity, LYMPHS (lymphocytes [6]; P92 Adenitis) | aberrant enzyme activity, LYMPHS (lymphocytes [6]; P97 Pyelonephritis) | aberrant enzyme activity, LYMPHS (lymphocytes [6]; P103 Viral Syndrome) | other results
1 | C[C@H](NC(=O)CNC(=O)[C@H](Cc1ccccc1)NC(=O)CN)C(=O)Nc1ccc2c(c1)Oc1cc(NC(=O)[C@H](C)NC(=O)CNC(=O)[C@H](Cc3ccccc3)NC(=O)CN)ccc1C21OC(=O)c2ccccc21 [GFGA, (Gly-Phe-Gly-Ala)2 Rho 110] (I: H-GFGA / II: H-GFGA; linker I:C-II:C via Rhodamine110) | .smallcircle. | .smallcircle. | .smallcircle. | .smallcircle. | .smallcircle. | 1.00 | .smallcircle. | .smallcircle. | .smallcircle. | .smallcircle. | .smallcircle. | 1.01 | .smallcircle. | .smallcircle. | .smallcircle. | .smallcircle. | .smallcircle. | NORMAL LEUKOCYTE ENZYME ACTIVITY LYMPHS Mean (lymphocytes [4]): 0.36
2 | N=C(N)NCCC[C@H](N)C(=O)NCC(=O)N[C@@H](CCC(=O)O)C(=O)N[C@@H](CO)C(=O)Nc1ccc2c(c1)Oc1cc(NC(=O)[C@H](CO)NC(=O)[C@H](CCC(=O)O)NC(=O)CNC(=O)[C@@H](N)CCCNC(=N)N)ccc1C21OC(=O)c2ccccc21 (stereo partly drawn) [RGES, (Arg-Gly-Glu-Ser)2 Rho 110] (I: H-RGES / II: H-RGES; linker I:C-II:C via Rhodamine110) | .smallcircle. | + (>0.25 Increase over normal range) | + (>0.25 Increase over normal range) | .smallcircle. | .smallcircle. | 3.96 | - (>0.25 Decrease over normal range) | .smallcircle. | + (>0.25 Increase over normal range) | .smallcircle. | .smallcircle. | 8.37 | .smallcircle. | .smallcircle. | .smallcircle. | .smallcircle. | .smallcircle. | aberrant enzyme activity, GRANS (granulocytes [1]; P95 Viral Syndrome): .smallcircle.; aberrant enzyme activity, GRANS (granulocytes [1]; P96 Viral Syndrome): .smallcircle.; aberrant enzyme activity, GRANS (granulocytes [1]; P99 Viral Syndrome): .smallcircle.; aberrant enzyme activity, GRANS (granulocytes [1]; P101 Fever -- Unknown Origin): .smallcircle.; aberrant enzyme activity, GRANS (granulocytes [1]; P102 UTI): .smallcircle.; aberrant enzyme activity, MONOS (monocytes [3]; P95 Viral Syndrome): .smallcircle.; aberrant enzyme activity, MONOS (monocytes [3]; P96 Viral Syndrome): .smallcircle.; aberrant enzyme activity, MONOS (monocytes [3]; P99 Viral Syndrome): .smallcircle.; aberrant enzyme activity, MONOS (monocytes [3]; P101 Fever -- Unknown Origin): - (>0.25 Decrease over normal range); aberrant enzyme activity, MONOS (monocytes [3]; P102 UTI): .smallcircle.; aberrant enzyme activity, LYMPHS (lymphocytes [6]; P95 Viral Syndrome): .smallcircle.; aberrant enzyme activity, LYMPHS (lymphocytes [6]; P96 Viral Syndrome): + (>0.25 Increase over normal range); aberrant enzyme activity, LYMPHS (lymphocytes [6]; P99 Viral Syndrome): .smallcircle.; aberrant enzyme activity, LYMPHS (lymphocytes [6]; P101 Fever -- Unknown Origin): .smallcircle.; aberrant enzyme activity, LYMPHS (lymphocytes [6]; P102 UTI): .smallcircle.

From patent US5698411A, “Method for determining activity of enzymes in metabolically active whole cells” (priority 1995, dated 1997)
